Values after ≈ are worked out from the molar mass of the structure shown. Like-named read-outs stand apart in the source and are kept apart here.
Assays:
E.cloacae C4008 = experiment: In vitro antibacterial activity, minimum inhibitory concentration; format: cell-based; conditions: Enterobacter cloacae
From the text: (§1) As reference compounds, Cefotaxime (CTX), Ceftazidime (CAZ) and Cefpirome (CPR) were employed.

E.cloacae C4009 = experiment: as above; format: cell-based; conditions: Enterobacter cloacae
From the text: as §1

E.coli ATCC10536 = experiment: as above; format: cell-based; conditions: Escherichia coli
From the text: as §1

E.coli ATCC25922 = experiment: as above; format: cell-based; conditions: Escherichia coli
From the text: as §1

E.coli C4002 = experiment: as above; format: cell-based; conditions: Escherichia coli
From the text: as §1

K.oxytoca C4022 = experiment: as above; format: cell-based; conditions: Klebsiella oxytoca
From the text: as §1

K.pneumoniae ATCC10031 = experiment: as above; format: cell-based; conditions: Klebsiella pneumoniae
From the text: as §1

K.pneumoniae C1040 = experiment: as above; format: cell-based; conditions: Klebsiella pneumoniae
From the text: as §1

MRSA C2208 = experiment: as above; format: cell-based; conditions: Staphylococcus aureus, read-out: Minimum Inhibitory Concentration (MIC)
From the text: as §1

P.aeruginosa ATCC10145 = experiment: as above; format: cell-based; conditions: Pseudomonas aeruginosa
From the text: as §1

P.aeruginosa ATCC27853 = experiment: as above; format: cell-based; conditions: Pseudomonas aeruginosa
From the text: as §1

P.aeruginosa C2027 = experiment: as above; format: cell-based; conditions: Pseudomonas aeruginosa
From the text: as §1

P.aeruginosa C4070 = experiment: as above; format: cell-based; conditions: Pseudomonas aeruginosa
From the text: as §1

P.mirabilis ATCC25933 = experiment: as above; format: cell-based; conditions: Proteus mirabilis
From the text: as §1

P.rettgeri ATCC9919 = experiment: as above; format: cell-based; conditions: Providencia rettgeri
From the text: as §1

S.Faecalis ATCC29212 = experiment: as above; format: cell-based; conditions: Enterococcus faecalis
From the text: as §1

S.aureus ATCC29213 = experiment: as above; format: cell-based; conditions: Staphylococcus aureus
From the text: as §1

S.aureus C4036 = experiment: as above; format: cell-based; conditions: Staphylococcus aureus
From the text: as §1

S.aureus Smith = experiment: as above; format: cell-based; conditions: Staphylococcus aureus, read-out: Minimum Inhibitory Concentration (MIC)
From the text: as §1

S.epidermidis ATCC12228 = experiment: as above; format: cell-based; conditions: Staphylococcus epidermidis
From the text: as §1

S.marcescens ATCC27117 = experiment: as above; format: cell-based; conditions: Serratia marcescens
From the text: as §1

S.marcescens C1052 = experiment: as above; format: cell-based; conditions: Serratia marcescens
From the text: as §1

S.pyogenes ATCC 8668 = experiment: as above; format: cell-based; conditions: Streptococcus pyogenes
From the text: as §1

S.pyogenes C4003 = experiment: as above; format: cell-based; conditions: Streptococcus pyogenes
From the text: as §1

S.typhimurium C4045 = experiment: as above; format: cell-based; conditions: Salmonella enterica, read-out: Minimum Inhibitory Concentration (MIC)
From the text: as §1

[1] = Pharmacokinetics (plasma half-life); format: in vivo; conditions: SD Rat, mean value, read-out: Half-Life (T1/2)
Protocol: In order to investigate the pharmacokinetics properties of the compounds according to the present invention, the plasma half-life was determined in accordance with the method described in Antimicrobial Agents and Chemotherapy, 26(2), p.

[2] = E.cloacae C4008, read-out: Minimum Inhibitory Concentration (MIC)
[3] = E.cloacae C4009, read-out: Minimum Inhibitory Concentration (MIC)
[4] = E.coli ATCC10536, read-out: Minimum Inhibitory Concentration (MIC)
[5] = E.coli ATCC25922, read-out: Minimum Inhibitory Concentration (MIC)
[6] = E.coli C4002, read-out: Minimum Inhibitory Concentration (MIC)
[7] = K.oxytoca C4022, read-out: Minimum Inhibitory Concentration (MIC)
[8] = K.pneumoniae ATCC10031, read-out: Minimum Inhibitory Concentration (MIC)
[9] = K.pneumoniae C1040, read-out: Minimum Inhibitory Concentration (MIC)
[10] = P.aeruginosa ATCC10145, read-out: Minimum Inhibitory Concentration (MIC)
[11] = P.aeruginosa ATCC27853, read-out: Minimum Inhibitory Concentration (MIC)
[12] = P.aeruginosa C2027, read-out: Minimum Inhibitory Concentration (MIC)
[13] = P.aeruginosa C4070, read-out: Minimum Inhibitory Concentration (MIC)
[14] = P.mirabilis ATCC25933, read-out: Minimum Inhibitory Concentration (MIC)
[15] = P.rettgeri ATCC9919, read-out: Minimum Inhibitory Concentration (MIC)
[16] = S.aureus ATCC29213, read-out: Minimum Inhibitory Concentration (MIC)
[17] = S.aureus C4036, read-out: Minimum Inhibitory Concentration (MIC)
[18] = S.epidermidis ATCC12228, read-out: Minimum Inhibitory Concentration (MIC)
[19] = S.marcescens ATCC27117, read-out: Minimum Inhibitory Concentration (MIC)
[20] = S.marcescens C1052, read-out: Minimum Inhibitory Concentration (MIC)
[21] = ATCC8668, S.pyogenes ATCC 8668, read-out: Minimum Inhibitory Concentration (MIC)
[22] = S.pyogenes C4003, read-out: Minimum Inhibitory Concentration (MIC)

CC(C)(O/N=C(\C(=O)N[C@@H]1C(=O)N2C(C(=O)[O-])=C(C[n+]3ccccc3)CS[C@H]12)c1csc(N)n1)C(=O)O [CAZ, Ceftazidime, reference compound]
MIC (E.cloacae C4008; C4008, read-out: Minimum Inhibitory Concentration (MIC)): 0.05 µg/mL (≈ 0.0915 µM) | MIC (E.cloacae C4009; C4009, read-out: Minimum Inhibitory Concentration (MIC)): 0.05 µg/mL (≈ 0.0915 µM) | MIC (E.coli ATCC10536; ATCC10536, read-out: Minimum Inhibitory Concentration (MIC)): 0.05 µg/mL (≈ 0.0915 µM) | MIC (E.coli ATCC25922; ATCC25922, read-out: Minimum Inhibitory Concentration (MIC)): 0.2 µg/mL (≈ 0.366 µM) | MIC (E.coli C4002; C4002, read-out: Minimum Inhibitory Concentration (MIC)): 0.1 µg/mL (≈ 0.183 µM) | MIC (K.oxytoca C4022; C4022, read-out: Minimum Inhibitory Concentration (MIC)): 0.78 µg/mL (≈ 1.43 µM) | MIC (K.pneumoniae ATCC10031; ATCC10031, read-out: Minimum Inhibitory Concentration (MIC)): 0.05 µg/mL (≈ 0.0915 µM) | MIC (K.pneumoniae C1040; C1040, read-out: Minimum Inhibitory Concentration (MIC)): 0.05 µg/mL (≈ 0.0915 µM) | MIC (MRSA C2208; MRSA): > 100 µg/mL | MIC (P.aeruginosa ATCC10145; ATCC10145, read-out: Minimum Inhibitory Concentration (MIC)): 1.56 µg/mL (≈ 2.85 µM) | MIC (P.aeruginosa ATCC27853; ATCC27853, read-out: Minimum Inhibitory Concentration (MIC)): 3.13 µg/mL (≈ 5.73 µM) | MIC (P.aeruginosa C2027; C2027, read-out: Minimum Inhibitory Concentration (MIC)): 0.78 µg/mL (≈ 1.43 µM) | MIC (P.aeruginosa C4070; C4070, read-out: Minimum Inhibitory Concentration (MIC)): 1.56 µg/mL (≈ 2.85 µM) | MIC (P.mirabilis ATCC25933; ATCC25933, read-out: Minimum Inhibitory Concentration (MIC)): 0.05 µg/mL (≈ 0.0915 µM) | MIC (P.rettgeri ATCC9919; ATCC9919, read-out: Minimum Inhibitory Concentration (MIC)): 0.025 µg/mL (≈ 0.0457 µM) | MIC (S.Faecalis ATCC29212): > 100 µg/mL | MIC (S.aureus ATCC29213; ATCC29213, read-out: Minimum Inhibitory Concentration (MIC)): 6.25 µg/mL (≈ 11.4 µM) | MIC (S.aureus C4036; C4036, read-out: Minimum Inhibitory Concentration (MIC)): 6.25 µg/mL (≈ 11.4 µM) | MIC (S.aureus Smith): 6.25 µg/mL (≈ 11.4 µM) | MIC (S.epidermidis ATCC12228; ATCC12228, read-out: Minimum Inhibitory Concentration (MIC)): 3.13 µg/mL (≈ 5.73 µM) | MIC (S.marcescens ATCC27117; ATCC27117, read-out: Minimum Inhibitory Concentration (MIC)): 0.1 µg/mL (≈ 0.183 µM) | MIC (S.marcescens C1052; C1052, read-out: Minimum Inhibitory Concentration (MIC)): 0.2 µg/mL (≈ 0.366 µM) | MIC (S.pyogenes ATCC 8668; ATCC8668, read-out: Minimum Inhibitory Concentration (MIC)): 0.1 µg/mL (≈ 0.183 µM) | MIC (S.pyogenes C4003; C4003, read-out: Minimum Inhibitory Concentration (MIC)): 0.2 µg/mL (≈ 0.366 µM) | MIC (S.typhimurium C4045; TYPHIMURIUM): 0.2 µg/mL (≈ 0.366 µM) | half-life ([1]; in vivo): 12.3 min

CO/N=C(\C(=O)N[C@@H]1C(=O)N2C(C(=O)[O-])=C(C[n+]3cccc4c3CCC4)CS[C@H]12)c1csc(N)n1 [CPR, Cefpirome, reference compound]
MIC (E.cloacae C4008; [2]): 0.013 µg/mL (≈ 0.0253 µM) | MIC (E.cloacae C4009; [3]): 0.013 µg/mL (≈ 0.0253 µM) | MIC (E.coli ATCC10536; [4]): 0.013 µg/mL (≈ 0.0253 µM) | MIC (E.coli ATCC25922; [5]): 0.05 µg/mL (≈ 0.0972 µM) | MIC (E.coli C4002; [6]): 0.05 µg/mL (≈ 0.0972 µM) | MIC (K.oxytoca C4022; [7]): 1.56 µg/mL (≈ 3.03 µM) | MIC (K.pneumoniae ATCC10031; [8]): 0.013 µg/mL (≈ 0.0253 µM) | MIC (K.pneumoniae C1040; [9]): 0.025 µg/mL (≈ 0.0486 µM) | MIC (MRSA C2208; MRSA C2208): > 100 µg/mL | MIC (P.aeruginosa ATCC10145; [10]): 6.25 µg/mL (≈ 12.1 µM) | MIC (P.aeruginosa ATCC27853; [11]): 3.13 µg/mL (≈ 6.08 µM) | MIC (P.aeruginosa C2027; [12]): 0.39 µg/mL (≈ 0.758 µM) | MIC (P.aeruginosa C4070; [13]): 6.25 µg/mL (≈ 12.1 µM) | MIC (P.mirabilis ATCC25933; [14]): 0.05 µg/mL (≈ 0.0972 µM) | MIC (P.rettgeri ATCC9919; [15]): 0.013 µg/mL (≈ 0.0253 µM) | MIC (S.Faecalis ATCC29212): 50 µg/mL (≈ 97.2 µM) | MIC (S.aureus ATCC29213; [16]): 0.78 µg/mL (≈ 1.52 µM) | MIC (S.aureus C4036; [17]): 0.39 µg/mL (≈ 0.758 µM) | MIC (S.aureus Smith; S.aureus Smith): 0.39 µg/mL (≈ 0.758 µM) | MIC (S.epidermidis ATCC12228; [18]): 0.2 µg/mL (≈ 0.389 µM) | MIC (S.marcescens ATCC27117; [19]): 0.05 µg/mL (≈ 0.0972 µM) | MIC (S.marcescens C1052; [20]): 0.05 µg/mL (≈ 0.0972 µM) | MIC (S.pyogenes ATCC 8668; [21]): 0.007 µg/mL (≈ 0.0136 µM) | MIC (S.pyogenes C4003; [22]): 0.007 µg/mL (≈ 0.0136 µM) | MIC (S.typhimurium C4045; S.typhimurium C4045): 0.025 µg/mL (≈ 0.0486 µM) | half-life [1]: 19.5 min

CO/N=C(\C(=O)N[C@@H]1C(=O)N2C(C(=O)[O-])=C(C[n+]3ccc4[nH]c(=O)[nH]c4c3)CS[C@H]12)c1nsc(N)n1 [Ex. 5, 7-β-[(Z)-2-(5-Amino-1,2,4-thiadiazol-3-yl)-2-methoxyiminoacetamido]-3-[2-(1H,3H)-oxo-imidazo[4,5-c]pyridiniummethyl]-3-cephem-4-carboxylate]
MIC (E.cloacae C4008; [2]): 0.002 µg/mL (≈ 0.00376 µM) | MIC (E.cloacae C4009; [3]): 0.007 µg/mL (≈ 0.0132 µM) | MIC (E.coli ATCC10536; [4]): 0.004 µg/mL (≈ 0.00753 µM) | MIC (E.coli ATCC25922; [5]): 0.013 µg/mL (≈ 0.0245 µM) | MIC (E.coli C4002; [6]): 0.007 µg/mL (≈ 0.0132 µM) | MIC (K.oxytoca C4022; [7]): 0.78 µg/mL (≈ 1.47 µM) | MIC (K.pneumoniae ATCC10031; [8]): 0.004 µg/mL (≈ 0.00753 µM) | MIC (K.pneumoniae C1040; [9]): 0.004 µg/mL (≈ 0.00753 µM) | MIC (MRSA C2208; MRSA C2208): > 100 µg/mL | MIC (P.aeruginosa ATCC10145; [10]): 1.56 µg/mL (≈ 2.93 µM) | MIC (P.aeruginosa ATCC27853; [11]): 0.78 µg/mL (≈ 1.47 µM) | MIC (P.aeruginosa C2027; [12]): 0.78 µg/mL (≈ 1.47 µM) | MIC (P.aeruginosa C4070; [13]): 1.56 µg/mL (≈ 2.93 µM) | MIC (P.mirabilis ATCC25933; [14]): 0.025 µg/mL (≈ 0.047 µM) | MIC (P.rettgeri ATCC9919; [15]): 0.007 µg/mL (≈ 0.0132 µM) | MIC (S.Faecalis ATCC29212): > 100 µg/mL | MIC (S.aureus ATCC29213; [16]): 1.56 µg/mL (≈ 2.93 µM) | MIC (S.aureus C4036; [17]): 1.56 µg/mL (≈ 2.93 µM) | MIC (S.aureus Smith; S.aureus Smith): 1.56 µg/mL (≈ 2.93 µM) | MIC (S.epidermidis ATCC12228; [18]): 0.78 µg/mL (≈ 1.47 µM) | MIC (S.marcescens ATCC27117; [19]): 0.007 µg/mL (≈ 0.0132 µM) | MIC (S.marcescens C1052; [20]): 0.025 µg/mL (≈ 0.047 µM) | MIC (S.pyogenes ATCC 8668; [21]): 0.013 µg/mL (≈ 0.0245 µM) | MIC (S.pyogenes C4003; [22]): 0.013 µg/mL (≈ 0.0245 µM) | MIC (S.typhimurium C4045; S.typhimurium C4045): 0.007 µg/mL (≈ 0.0132 µM) | half-life [1]: 24 min

Reference: patent US5389627A, “Cephem compounds” (priority 1993, dated 1995)
